Assay results published in patent US4218443A, “Polyether ionophores as antiobesity and hypotriglyceridemic agents” (Hoffmann-La Roche Inc., priority 1979, dated 1980).
pKi: −log10 of the molar value.

Legend:
[1] = test system: hepatic fatty acid synthesis; assay: In vivo hepatic fatty acid synthesis in meal-fed rats; parameters: species or system Charles River rat; details: sodium salt, mean ± SE
Procedure: (§1) In the following examples, female rats (Charles River CD strain, 180-200 g) were housed individually in wire bottom cages in a temperature (22°) and light (12 hr light and 12 hr dark) regulated room. They had free access to Purina Rodent Chow and water.

[2] = test system: female Charles River rats; assay: Chronic 31 day dietary admix experiment; format: in vivo, Charles River rat; details: 31 days; for Body Weight Gain / Body Weight final / Fat Absorption / Food Consumption / Food Efficiency / Serum Cholesterol / Serum Free Fatty Acids / Serum Glucose / Serum IRI (immunoreactive insulin) / Serum Triglycerides: sodium salt, mean ± SE
Text: (§2) Faster enzymatic procedure for serum triglycerides, Clinical Chemistry, 21: 1983-1985], cholesterol, [C. C. Allain, L. Poon, S. G. Chan, W. Richmond and P. Fu (1974). Enzymatic determination of total serum cholesterol, Clinical Chemistry, 20: 470-475] and glucose, [R. Konig, H. Dauwalder and R. Richterich (1971). Vergleichende Bestimmungen der Uringlucosekonzentration mit der Polarimetrie und einer enzymatischen Methode (Hexokinase/Glucose-6-Phosphat-Dehydrogenase), Schweiz. Med. Wschr., 101: 860-866], by enzymatic procedures and free fatty acids, [C. Dalton and C. Kowalski (1967). Automated colorimetric determination of free fatty acids in biologic fluids, Clinical Chemistry, 13: 744-751], by a Colorimetric procedure. Serum immunoreactive insulins were determined by radioimmunoassay, [G. F. Bryce, P. R. Johnson, A. C. Sullivan, J. S. Stern (1977). Insulin and glucagon: Plasma levels and pancreatic release in the gentically obese Zucker rat, Hormone and Metabolic Research, 9: 366-370].
(§3) FIG. 2 sets forth body weight gain values of rats matched for initial body weight and pair fed 10% corn oil diet without dinitrodescarboxylasalocid and three groups of pair fed rats receiving 60, 120 and 240 mg/kg of dinitrodescarboxylasalocid as dietary admixes for 31 days respectively. […] Tables 12 and 13 describe the effects of dinitrodescarboxylasalocid (150 mg/kg b.i.d. by oral intubation) in genetically obese and lean Zucker rats for 21 days.

[3] = test system: obese and lean female Zucker rats; assay: Chronic 21 day experiment in obese and lean Zucker rats; format: in vivo, Zucker rat; details: 150 mg/kg b.i.d. oral, 21 days, sodium salt, mean ± SE
Text: Ad libitum fed lean and genetically obese Zucker rats (140 days old) were used in one chronic study.
as §2, §3

human pancreatic lipase = biological target: T1, human pancreatic lipase (Homo sapiens, UniProt P16233); assay: In vitro titrimetric (Radiometer pH-stat) pancreatic lipase assay, Dixon plots; format: biochemical; details: Dixon plots
T1 construct: Human pancreatic juice was obtained from a patient with acute pancreatitis; from tissue; host or cells: human pancreatic juice from the cannulated duct of a patient with acute pancreatitis; gift of Dr. George Nardi, Massachusetts General Hospital
T1 sequence (P16233 17-465): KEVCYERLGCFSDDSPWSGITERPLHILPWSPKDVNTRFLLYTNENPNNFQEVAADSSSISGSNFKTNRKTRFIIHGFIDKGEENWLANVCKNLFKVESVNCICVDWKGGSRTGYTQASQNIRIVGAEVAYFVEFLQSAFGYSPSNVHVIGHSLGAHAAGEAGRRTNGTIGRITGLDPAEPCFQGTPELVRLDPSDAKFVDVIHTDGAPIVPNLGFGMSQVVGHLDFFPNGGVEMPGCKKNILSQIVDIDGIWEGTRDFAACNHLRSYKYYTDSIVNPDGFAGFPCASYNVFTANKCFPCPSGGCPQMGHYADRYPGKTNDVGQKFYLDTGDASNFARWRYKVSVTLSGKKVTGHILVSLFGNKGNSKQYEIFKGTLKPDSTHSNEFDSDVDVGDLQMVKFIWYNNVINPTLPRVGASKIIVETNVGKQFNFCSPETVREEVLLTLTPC

[4] = test system: meal-fed Charles River rats; assay: Food consumption and serum parameters in meal-fed rats (in vivo fatty acid synthesis experiments); parameters: species or system Charles River rat; details: sodium salt, mean ± SE
Procedure: as §1
Faster enzymatic procedure for serum triglycerides, Clinical Chemistry, 21: 1983-1985], cholesterol, [C. C. Allain, L. Poon, S. G. Chan, W. Richmond and P. Fu (1974). Enzymatic determination of total serum cholesterol, Clinical Chemistry, 20: 470-475] and glucose, [R. Konig, H. Dauwalder and R. Richterich (1971). Vergleichende Bestimmunogen der Uringlucosekonzentration mit der Polarimetrie und einer enzymatischen Methode (Hexokinase/Glucose-6-Phosphat-Dehydrogenase), Schweiz. Med. Wschr., 101: 860-866] by enzymatic procedures.

CC[C@@H](C(=O)[C@@H](C)[C@@H](O)[C@H](C)CCc1c([N+](=O)[O-])cc(C)c(O)c1[N+](=O)[O-])[C@H]1O[C@](CC)([C@H]2CC[C@](O)(CC)[C@H](C)O2)C[C@@H]1C [Dinitrodescarboxylasalocid]
Fatty Acid Synthesis 3H2O converted ([1]; 60 mg/kg i.p.): 12.5 ± 2.1 μmoles per 1 g liver in 30 min
Fatty Acid Synthesis [14C]alanine converted ([1]; 60 mg/kg i.p.): 208 ± 42 nmoles per 1 g liver in 30 min
Fatty Acid Synthesis 3H2O converted ([1]; Experiment 1, 240 mg/kg p.o.): 17.1 ± 3.5 μmoles per 1 g liver per 30 mi
Fatty Acid Synthesis [14C]alanine converted ([1]; Experiment 1, 240 mg/kg p.o.): 250 ± 87 nmoles per 1 g liver per 30 mi
Fatty Acid Synthesis 3H2O converted ([1]; Experiment 2, 60 mg/kg p.o.): 17.0 ± 3.1 μmoles per 1 g liver per 30 mi
Fatty Acid Synthesis [14C]alanine converted ([1]; Experiment 2, 60 mg/kg p.o.): 711 ± 130 nmoles per 1 g liver per 30 mi
Fatty Acid Synthesis 3H2O converted ([1]; Experiment 2, 120 mg/kg p.o.): 18.7 ± 2.1 μmoles per 1 g liver per 30 mi
Fatty Acid Synthesis [14C]alanine converted ([1]; Experiment 2, 120 mg/kg p.o.): 696 ± 80 nmoles per 1 g liver per 30 mi
Fatty Acid Synthesis 3H2O converted ([1]; Experiment 2, 240 mg/kg p.o.): 12.6 ± 1.4 μmoles per 1 g liver per 30 mi
Fatty Acid Synthesis [14C]alanine converted ([1]; Experiment 2, 240 mg/kg p.o.): 510 ± 64 nmoles per 1 g liver per 30 mi
Body Weight Gain ([2]; 60 mg/kg dietary admix): 64 ± 6 g
Body Weight final ([2]; 60 mg/kg dietary admix): 255 ± 8 g
Fat Absorption ([2]; 60 mg/kg dietary admix): 95.6 ± 0.6%
Food Consumption ([2]; 60 mg/kg dietary admix): 17.4 ± 0.6 g/day
Food Efficiency ([2]; 60 mg/kg dietary admix): 0.115 ± 0.010 g gained/g consumed
Serum Cholesterol ([2]; 60 mg/kg): 106 ± 6 mg/100 ml
Serum Free Fatty Acids ([2]; 60 mg/kg): 469 ± 46 μeq/l
Serum Glucose ([2]; 60 mg/kg): 173 ± 5 mg/100 ml
Serum IRI (immunoreactive insulin) ([2]; 60 mg/kg): 1.8 ± 0.2 ng/mL
Serum Triglycerides ([2]; 60 mg/kg): 73 ± 3 mg/100 ml
Body Weight Gain ([2]; 120 mg/kg dietary admix): 66 ± 8 g
Body Weight final ([2]; 120 mg/kg dietary admix): 256 ± 10 g
Fat Absorption ([2]; 120 mg/kg dietary admix): 95.8 ± 0.6%
Food Consumption ([2]; 120 mg/kg dietary admix): 19.0 ± 0.5 g/day
Food Efficiency ([2]; 120 mg/kg dietary admix): 0.109 ± 0.014 g gained/g consumed
Serum Cholesterol ([2]; 120 mg/kg): 88 ± 6 mg/100 ml
Serum Free Fatty Acids ([2]; 120 mg/kg): 425 ± 45 μeq/l
Serum Glucose ([2]; 120 mg/kg): 164 ± 5 mg/100 ml
Serum IRI (immunoreactive insulin) ([2]; 120 mg/kg): 2.0 ± 0.2 ng/mL
Serum Triglycerides ([2]; 120 mg/kg): 64 ± 5 mg/100 ml
Body Weight Gain ([2]; 240 mg/kg dietary admix): 51 ± 3 g
Body Weight final ([2]; 240 mg/kg dietary admix): 246 ± 4 g
Fat Absorption ([2]; 240 mg/kg dietary admix): 88.1 ± 1.7%
Food Consumption ([2]; 240 mg/kg dietary admix): 17.6 ± 0.5 g/day
Food Efficiency ([2]; 240 mg/kg dietary admix): 0.083 ± 0.011 g gained/g consumed
Serum Cholesterol ([2]; 240 mg/kg): 155 ± 9 mg/100 ml
Serum Free Fatty Acids ([2]; 240 mg/kg): 423 ± 61 μeq/l
Serum Glucose ([2]; 240 mg/kg): 155 ± 8 mg/100 ml
Serum IRI (immunoreactive insulin) ([2]; 240 mg/kg): 1.7 ± 0.2 ng/mL
Serum Triglycerides ([2]; 240 mg/kg): 51 ± 4 mg/100 ml
Body weight gain compared to controls and the respective pair-fed groups (FIG. 2) ([2]; 60, 120 and 240 mg/kg dietary admix): reduced significantly only at the 240 mg/kg dose
Body Weight Gain ([3]; Fa/- (lean)): 20 ± 4 g
Fat Absorption ([3]; Fa/- (lean)): 90.1 ± 0.9%
Fecal Weight ([3]; Fa/- (lean)): 1.6 ± 0.1 g
Final Body Weight ([3]; Fa/- (lean)): 202 ± 5 g
Food Consumption ([3]; Fa/- (lean)): 16.8 ± 0.8 g/day
Serum Cholesterol ([3]; Fa/- (lean)): 84 ± 7 mg/100 ml
Serum Free Fatty Acids ([3]; Fa/- (lean)): 519 ± 58 μeq/l
Serum Glucose ([3]; Fa/- (lean)): 154 ± 6 mg/100 ml
Serum IRI (immunoreactive insulin) ([3]; Fa/- (lean)): 0.5 ± 0.1 ng/mL
Serum Triglycerides ([3]; Fa/- (lean)): 71 ± 5 mg/100 ml
Body Weight Gain ([3]; fa/fa (obese)): 61 ± 6 g
Fat Absorption ([3]; fa/fa (obese)): 93.0 ± 1.1%
Fecal Weight ([3]; fa/fa (obese)): 2.1 ± 0.1 g
Final Body Weight ([3]; fa/fa (obese)): 352 ± 12 g
Food Consumption ([3]; fa/fa (obese)): 19.5 ± 0.9 g/day
Serum Cholesterol ([3]; fa/fa (obese)): 168 ± 6 mg/100 ml
Serum Free Fatty Acids ([3]; fa/fa (obese)): 668 ± 59 μeq/l
Serum Glucose ([3]; fa/fa (obese)): 201 ± 12 mg/100 ml
Serum IRI (immunoreactive insulin) ([3]; fa/fa (obese)): 8.3 ± 0.6 ng/mL
Serum Triglycerides ([3]; fa/fa (obese)): 178 ± 19 mg/100 ml
type of inhibition from Dixon plots (human pancreatic lipase): suggested competitive inhibition
pKi (human pancreatic lipase; in vitro Radiometer assay, read-out: inhibition constant (Ki)): 4.70
Food Consumption ([4]; 60 mg/kg i.p.): 15.7 ± 0.4 g
Food Consumption ([4]; Experiment 1, 240 mg/kg p.o.): 11.0 ± 0.8 g
Serum Cholesterol ([4]; Experiment 1, 240 mg/kg p.o.): 85 ± 7 mg/100 ml
Serum Glucose ([4]; Experiment 1, 240 mg/kg p.o.): 194 ± 9 mg/100 ml
Serum Triglycerides ([4]; Experiment 1, 240 mg/kg p.o.): 42 ± 5 mg/100 ml
Food Consumption ([4]; Experiment 2, 60 mg/kg p.o.): 8.8 ± 1.0 g
Serum Cholesterol ([4]; Experiment 2, 60 mg/kg p.o.): 84 ± 3 mg/100 ml
Serum Glucose ([4]; Experiment 2, 60 mg/kg p.o.): 165 ± 6 mg/100 ml
Serum Triglycerides ([4]; Experiment 2, 60 mg/kg p.o.): 40 ± 4 mg/100 ml
Food Consumption ([4]; Experiment 2, 120 mg/kg p.o.): 10.7 ± 1.0 g
Serum Cholesterol ([4]; Experiment 2, 120 mg/kg p.o.): 82 ± 6 mg/100 ml
Serum Glucose ([4]; Experiment 2, 120 mg/kg p.o.): 168 ± 7 mg/100 ml
Serum Triglycerides ([4]; Experiment 2, 120 mg/kg p.o.): 31 ± 2 mg/100 ml
Food Consumption ([4]; Experiment 2, 240 mg/kg p.o.): 9.4 ± 1.1 g
Serum Cholesterol ([4]; Experiment 2, 240 mg/kg p.o.): 76 ± 7 mg/100 ml
Serum Glucose ([4]; Experiment 2, 240 mg/kg p.o.): 183 mg/100 ml
Serum Triglycerides ([4]; Experiment 2, 240 mg/kg p.o.): 31 ± 5 mg/100 ml
